Test results reported in paper PMC7587337, “Kaempferol Facilitated Extinction Learning in Contextual Fear Conditioned Rats via Inhibition of Fatty-Acid Amide Hydrolase” (Molecules, 2020).

Legend:
[1] = molecular target: T1, fatty-acid amide hydrolase (FAAH) (Homo sapiens, UniProt O00519); test: FAAH inhibitor screening assay kit (Cayman […]), dose-response […]; type: biochemical
T1 sequence (O00519 1-579): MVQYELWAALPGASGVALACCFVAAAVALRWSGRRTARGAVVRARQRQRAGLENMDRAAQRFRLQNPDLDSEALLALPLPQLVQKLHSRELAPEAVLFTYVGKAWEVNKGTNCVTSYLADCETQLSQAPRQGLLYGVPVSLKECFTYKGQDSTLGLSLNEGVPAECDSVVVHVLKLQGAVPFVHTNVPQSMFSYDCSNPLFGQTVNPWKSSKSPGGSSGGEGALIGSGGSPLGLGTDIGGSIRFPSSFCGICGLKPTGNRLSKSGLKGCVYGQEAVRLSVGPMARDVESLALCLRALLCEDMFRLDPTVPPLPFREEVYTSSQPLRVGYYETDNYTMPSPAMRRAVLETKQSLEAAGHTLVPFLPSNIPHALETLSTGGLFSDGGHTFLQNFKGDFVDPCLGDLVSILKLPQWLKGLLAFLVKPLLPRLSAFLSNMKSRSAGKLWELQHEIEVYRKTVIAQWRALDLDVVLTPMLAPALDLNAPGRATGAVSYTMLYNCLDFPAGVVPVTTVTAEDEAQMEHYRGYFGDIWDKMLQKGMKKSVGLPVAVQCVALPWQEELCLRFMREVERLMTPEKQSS

[2] = molecular target: T1, fatty-acid amide hydrolase (FAAH); test: FAAH inhibitor screening assay kit (Cayman […]), percent inhibition at […]; type: biochemical

IC50 [1] [nM] | Structure (SMILES) | inhibition at 10 µM [2] [%]
1060 | O=c1c(O)c(-c2ccc(O)cc2)oc2cc(O)cc(O)c12 [kaempferol] | –
– | O=C(Oc1ccc([N+](=O)[O-])cc1)N1CCN(Cc2cccc(Oc3ccccc3)c2)CC1 [JZL195] | 88 ± 1.26
